This test concerns YAP/TAZ-TEAD transcription. Kind of test: Reporter gene assay for measuring the inhibition of YAP/TAZ-TEAD transcription (TEAD-responsive element luciferase reporter, Hek293T cells). In kind it is cell-based. The following applies: Hek293T cells transfected with TEAD-responsive element luciferase reporter, 24 hours incubation. On the procedure: Hek293T cells were cultured in DMEM supplemented with 10% fetal bovine serum, Sodium pyruvate, Sodium bicarbonate, L-glutamine. The cells were harvested and transiently transfected with TEAD-responsive element luciferase reporter. Transfected cells were plated in 384-well plate containing pre-diluted compounds. After 24 hours incubation at 37° C./5% CO2, assay plates were cooled to room temperature and levelled to an equal volume per well, prior to the addition of 25 uL luciferase substrate SteadyLite (Perkin Elmer)/well. The plate was shaken for 10 min at 600 rpm, centrifuged for 1 min at 500 rpm and measured with an Envision reader (PerkinElmer). The amount of relative light units produced by the TEAD reporter was used to calculate the percentage of inhibition.
The percent of reporter inhibition was calculated in the presence of a positive control inhibitor (100% inhibition) versus a condition with the presence of the vehicle basal activity of the reporter (0% inhibition). The ability of a test compound to inhibit this activity was determined as: Percentage inhibition=[1-((RLU determined in the presence of vehicle−RLU determined for sample with test compound present) divided by (RLU determined in the presence of vehicle−RLU determined for sample with positive control inhibitor))]*100.
The activities of example compounds tested are depicted in Table 3. The activity ranges A, B and C refer to IC50 values in the reporter gene assay as follows: “A”: IC50<1 μM; “B”: 1 μM≤IC50 10 μM and “C”: IC50>10 μM; NT=not tested.
In general terms: Reporter assays use an easily measured gene product as a stand-in for the process of interest.

The structures appear in SMILES notation. pIC50: −log10 of the molar value.

By pIC50 is commonly meant the IC50 on a negative log10 scale, so that one unit is a factor of ten. A lower pIC50 goes with a high IC50.

For `C=CC(=O)NCC1Cc2ncccc2N(c2ccc(C(F)(F)F)cc2)C1` (single isomer, unassigned) [Cpd. No. 10-En2, (R)- or (S)-N-((1-(4-(trifluoromethyl)phenyl)-1,2,3,4-tetrahydro-1,5-naphthyridin-3-yl)methyl)acrylamide], the negative logarithm of the IC50 (pIC50) was more than 6.00. Compound `CC(=O)NCC1Cc2ncccc2N(c2ccc(C(F)(F)F)cc2)C1` (single isomer, unassigned) [Cpd. No. 12-En1, (R)- or (S)-N-((1-(4-(trifluoromethyl)phenyl)-1,2,3,4-tetrahydro-1,5-naphthyridin-3-yl)methyl)acetamide] showed a negative-log IC50 (pIC50) (Homo sapiens, HEK-293T, 24 h) of 5.00 to 6.00.

Take `COC(=O)NCC1Cc2ncccc2N(c2ccc(C(F)(F)F)cc2)C1` (single isomer, unassigned) [Cpd. No. 15-En2, (R)- or (S)-methyl ((1-(4-(trifluoromethyl)phenyl)-1,2,3,4-tetrahydro-1,5-naphthyridin-3-yl)methyl)carbamate]: under “Homo sapiens, HEK-293T, 24 h”, the pIC50 was 5.00 to 6.00. For the compound `CCC(=O)NCC1Cc2ncccc2N(c2ccc(C(F)(F)F)cc2)C1` (single isomer, unassigned) [Cpd. No. 17-En1, (R)- or (S)-N-((1-(4-(trifluoromethyl)phenyl)-1,2,3,4-tetrahydro-1,5-naphthyridin-3-yl)methyl)propionamide], where the note is “Homo sapiens, HEK-293T, 24 h”, the pIC50 was 5.00 to 6.00.

In the case of `COc1ccc2c(n1)CC(CNC(C)=O)CN2c1ccc(C(F)(F)F)cc1` (single isomer, unassigned) [Cpd. No. 22-En1, (R)- or (S)-N-((6-methoxy-1-(4-(trifluoromethyl)phenyl)-1,2,3,4-tetrahydro-1,5-naphthyridin-3-yl)methyl)acetamide], the pIC50 (Homo sapiens, HEK-293T, 24 h) is 5.00 to 6.00.

Regarding `CC(=O)NCC1Cc2nc(C)ccc2N(c2ccc(C(F)(F)F)cc2)C1` (single isomer, unassigned) [Cpd. No. 26-En1, (R)- or (S)-N-((6-methyl-1-(4-(trifluoromethyl)phenyl)-1,2,3,4-tetrahydro-1,5-naphthyridin-3-yl)methyl)acetamide], under “Homo sapiens, HEK-293T, 24 h”, the negative logarithm of the IC50 (pIC50) was more than 6.00.

Turning to `[2H]C([2H])([2H])C(=O)NCC1Cc2ncccc2N(c2ccc(C(F)(F)F)cc2)C1` (single isomer, unassigned) [Cpd. No. 34-En1, (R)- or (S)-N-((1-(4-(trifluoromethyl)phenyl)-1,2,3,4-tetrahydro-1,5-naphthyridin-3-yl)methyl)acetamide-2,2,2-d3], the pIC50 was 5.00 to 6.00. The compound `O=C(CC(F)(F)F)NCC1Cc2ncccc2N(c2ccc(C(F)(F)F)cc2)C1` (single isomer, unassigned) [Cpd. No. 38-En1, (R)- or (S)-3,3,3-trifluoro-N-((1-(4-(trifluoromethyl)phenyl)-1,2,3,4-tetrahydro-1,5-naphthyridin-3-yl)methyl)propanamide] showed a pIC50 (Homo sapiens, HEK-293T, 24 h) of 5.00 to 6.00. The compound `O=C(CC(F)(F)F)NCC1Cc2ncccc2N(c2ccc(C(F)(F)F)cc2)C1` (single isomer, unassigned) [Cpd. No. 38-En2, (R)- or (S)-3,3,3-trifluoro-N-((1-(4-(trifluoromethyl)phenyl)-1,2,3,4-tetrahydro-1,5-naphthyridin-3-yl)methyl)propanamide] had a pIC50 of more than 6.00.

Compound `CC(=O)NCC1(C)Cc2ncccc2N(c2ccc(C(F)(F)F)cc2)C1` (single isomer, unassigned) [Cpd. No. 47-En2, (R)- or (S)-N-((3-methyl-1-(4-(trifluoromethyl)phenyl)-1,2,3,4-tetrahydro-1,5-naphthyridin-3-yl)methyl)acetamide] had a pIC50 of less than 5.00.

In the case of `CCC(=O)NCC1Cc2c(Oc3cccnc3)cccc2N(c2ccc(C(F)(F)F)cc2)C1` (stereo not drawn) [Cpd. No. 1, N-((5-(pyridin-3-yloxy)-1-(4-(trifluoromethyl)phenyl)-1,2,3,4-tetrahydroquinolin-3-yl)methyl)propionamide], the pIC50 (Homo sapiens, HEK-293T, 24 h) is more than 6.00. For the setting “Homo sapiens, HEK-293T, 24 h”, `CS(=O)(=O)NCC1Cc2c(Oc3cccnc3)cccc2N(c2ccc(C(F)(F)F)cc2)C1` (stereo not drawn) [Cpd. No. 2, N-((5-(pyridin-3-yloxy)-1-(4-(trifluoromethyl)phenyl)-1,2,3,4-tetrahydroquinolin-3-yl)methyl)methanesulfonamide] gave a pIC50 of 5.00 to 6.00.

The record behind these values is patent US20240417398A1, “TETRAHYDRONAPTHYRIDINE AND RELATED ANALOGS FOR INHIBITING YAP/TAZ-TEAD” (SpringWorks Therapeutics, Inc., priority 2023, published 2024).
